Reference: patent US20040235761A1, “Novel virus proliferaton inhibition/virucidal method and novel pyradine nucleotide/pyradine nucleoside analogue” (priority 2001, published 2004)

Key:
[1] = system: influenza virus A/PR/8/34; experiment: Anti-influenza effect (plaque inhibition in MDCK cells); type: cell-based; details: PR/8, MDCK, 72 h, read-out: Inhibition rate (plaque inhibition rate)
MDBK cells = experiment: Detection of triphosphate compound in cell by addition of compound A; type: in vitro ADME; details: 37° C., 24 hours
Experimental: 10 ml of an E′-MEM culture medium (containing 0.5% fetal bovine serum) containing compound A was added to MDBK cells that had been monolayer-cultured on a 55 cm^2 culture plate. After completion of culture under conditions of 37° C. and 5% CO2 for 24 hours, the culture was removed using a cell scraper, and the culture medium was removed by centrifugation. Thereafter, 5% trichloroacetic acid was added to the obtained cell fractions, so that a converted compound was extracted. An equal amount of 20% trioctylamine-containing pentane was added to the extract, and the obtained water layer was then concentrated using a centrifugal concentrator. In the above concentrate, a component whose HPLC retention time matches that of a synthetic compound of triphosphates (a compound obtained in Reference Example 22) was detected.

[2] = system: bovine diarrhea virus (BVDV) NADL; experiment: Anti-BVDV effect (plaque inhibition in MDBK cells); type: cell-based; details: Bovine viral diarrhea virus isolates and strains, 72 h, 100 μg/mL test compound, 70 PFU/well, 3 days, read-out: Inhibition rate (plaque inhibition rate)
Experimental: MDBK cells that had fully grown in a 6-well culture plate were infected with bovine diarrhea virus (BVDV) NADL at 70 PFU/well. After 60 minutes, the infection solution was removed, and a test culture solution (E′-MEM) containing 5% horse serum and 1% agar (SeaPlaque Agar) that contained a 100 μg/mL test compound was added thereto. The mixture was fully solidified and then cultured for 3 days under conditions of 37° C., a humidity of 100% and 5% CO2. After completion of the culture, the test plate was fixed with a 3% formaldehyde solution, and the agar medium was removed with running water, followed by staining with a 1% crystal violet solution, so as to count the number of plaques. The plaque inhibition rate was expressed by the percentage obtained by comparing with a control to which no test compounds were added.

[3] = mouse, in vivo, 300 mg/kg
Experimental: Compound A was administered into the caudal vein of a mouse at a dose of 300 mg/kg. 30 minutes after the administration, 1.6 g of the liver was excised, and it was then ground under ice cooling, while adding thereto 22.5 mL of 70% methanol that had been cooled to −20° C., so that compound A and a phosphate(s) form were extracted. 10 mL of the supernatant of the extract centrifuged at 4° C. for 10 minutes was purified under the condition indicated below, using a solid extraction cartridge (Varian BOND ELUT SAX HF 2 g/12 mL; eluted with 0.01 M to 1.0 M KCl) pretreated with 12 mL of methanol and 12 mL each of 1.0 M and 0.005 M KCl.
The phosphate form contained in 5 mL of No. 3 0.05 M KCl eluate and a synthetic monophosphate compound (a compound obtained in Reference Example 30) were identical in terms of HPLC retention time and UV spectrum in HPLC analysis (HPLC-1) described in HPLC conditions. In addition, the phosphate form contained in 5 mL of No. 1 0.5 M KCl eluate and a synthetic diphosphate compound (a compound obtained in Reference Example 31) were identical in terms of HPLC retention time in HPLC analysis (HPLC-2) described in HPLC conditions. […]

[4] = Stability during the process of pharmaceutical preparation; type: physicochemical; details: compared with anhydrides
MDCK cells [5] = experiment: Detection of deprotected compound in cell (Test Example 2); type: in vitro ADME; details: 37° C., 1 hour, HPLC
Experimental: The compound of Example 2 was added to MDCK cells suspended in a Hank's balanced salt solution, and the mixture was incubated at 37° C. for 1 hour. Thereafter, the obtained product was layered on silicon oil (KF-99), followed by centrifugation at 4° C. Cell fractions from the precipitate were suspended and frozen-thawed in a mobile phase indicated below, and the obtained solution was analyzed under the HPLC analysis conditions indicated below.

MDCK cells [6] = experiment: Detection of phosphate compound in cell (Test Example 1); type: in vitro ADME; details: 35° C., 20 hours, HPLC with radioactivity detector
Experimental: 5 ml of an E′-MEM culture medium (containing 1% bovine serum albumin and 3% vitamin solution) containing a compound, 6-fluoro-3-hydroxy-2-[2-^14C]pyrazinecarboxamide, which ha-d been ^14C-labeled at position 2 of the pyrazine ring, was added to MDCK cells that had been monolayer-cultured on a 55 cm^2 culture plate. After completion of culture under conditions of 35° C. and 5% CO2 for 20 hours, 6-fluoro-3-hydroxy-2-[2-^14C]pyrazinecarboxamide and a converted compound were extracted from cell fractions, using a 66.6% acetonitrile solution. The extract was lyophilized and concentrated, and then analysis was carried out under the HPLC analysis conditions indicated below.

Q: For `NC(=O)c1nccn([C@@H]2O[C@H](CO)[C@@H](O)[C@H]2O)c1=O` [Example 29, 4-[(2R,3R,4S,5R)-3,4-dihydroxy-5-(hydroxymethyl)tetrahydro-2-furanyl]-3-oxo-3,4-dihydro-2-pyrazinecarboxamide], which inhibition at 100 µg/mL [1] is on record?
A: The inhibition at 100 µg/mL was 100%.

Q: What about the “component whose HPLC retention time matches the synthetic triphosphate (Reference Example 22) in cell extract” value (MDBK cells) of the same compound?
A: Its value is “detected”.

Q: What about the inhibition at 100 µg/mL [2] of the same compound?
A: Its inhibition at 100 µg/mL is 100%.

Q: What about the “conversion into phosphate forms in the liver” value [3] of the same compound?
A: Its value is “converted in vivo into a monophosphate, then into a diphosphate form, and then into a triphosphate”.

Q: For `NC(=O)c1nccn([C@@H]2O[C@H](CO)[C@@H](O)[C@H]2O)c1=O.O` [Example 29 (2), 4-[(2R,3R,4S,5R)-3,4-dihydroxy-5-(hydroxymethyl)tetrahydro-2-furanyl]-3-oxo-3,4-dihydro-2-pyrazinecarboxamide monohydrate], which “stability during the process of pharmaceutical preparation” value [4] is on record?
A: Its value is “excellent stability”.

Q: What does the source list for `CC(C)(C)C(=O)SCCOP(=O)(OCCSC(=O)C(C)(C)C)OC[C@H]1O[C@@H](n2ccnc(C(N)=O)c2=O)[C@H](O)[C@@H]1O` [Example 2, 2,2-dimethyl-thiopropionic acid S-(2-[[(2R,3S,4R,5R)-5-(3-carbamoyl-2-oxo-2H-pyrazine-1-yl)-3,4-dihydroxy-tetrahydro-furan-2-ylmethoxy]-[2-(2,2-dimethyl-propionylsulfanyl)-ethoxy]-phosphoryloxy]-ethyl) ester]?
A: inhibition at 100 µg/mL [1]: 100%; monophosphate as deprotected compound in cell fractions (MDCK cells [5]): detected; inhibition at 100 µg/mL [2]: 100%

Q: For `NC(=O)[14c]1nc(F)cnc1O` [6-fluoro-3-hydroxy-2-[2-^14C] pyrazinecarboxamide], which “monophosphate (Reference Example 15) and triphosphate (Reference Example 16) in cell fractions” value (MDCK cells [6]) is on record?
A: Its value is “detected”.
